Patent US10414769B2, “5,8-dimethyl-9-phenyl-5,8-dihydro-6H-pyrazolo[3,4-h]quinazolin-2-yl)-(1H-pyrazol-3-yl)-amines as IGF-1R/IR inhibitors” (Boehringer Ingelheim International GmbH, priority 2015, dated 2019)

How the values were obtained:
[1] = biological target: T1, MAP2K1 (MEK1) (Homo sapiens, UniProt Q02750); test: Z'-LYTE kinase selectivity assay MAP2K1; assay type: biochemical
T1 construct: purchased Life Technologies PV 3303
From the text: (§1) In order to compare the kinase selectivity of compounds (I) according to the invention with known prior art compounds the commercially provided SelectScreen® Kinase Profiling Service (Z′-LYTE®) was used (Life Technologies GmbH, Darmstadt, Germany) to investigate the ability of the compounds to inhibit a number of different, representatively selected human kinases. Further details regarding this service are available on the Life Technologies website at
(§2) The Z′-LYTE® biochemical assay employs a fluorescence-based, coupled-enzyme format and is based on the differential sensitivity of phosphorylated and non-phosphorylated peptides to proteolytic cleavage. The peptide substrate is labeled with two fluorophores—one at each end—that make up a FRET pair.
(§3) In the primary reaction, the kinase transfers the gamma-phosphate of ATP to a single tyrosine, serine or threonine residue in a synthetic FRET-peptide. In the secondary reaction, a site-specific protease recognizes and cleaves non-phosphorylated FRET-peptides. Phosphorylation of FRET-peptides suppresses cleavage by the Development Reagent. Cleavage disrupts FRET between the donor (i.e., coumarin) and acceptor (i.e., fluorescein) fluorophores on the FRET-peptide, whereas uncleaved, phosphorylated FRET-peptides maintain FRET. A ratiometric method, which calculates the ratio (the Emission Ratio) of donor emission to acceptor emission after excitation of the donor fluorophore at 400 nm, is used to quantitate reaction progress, as shown in the equation below.
(§4) The Test Compounds are screened at 1 μM.
After the 1 hour Kinase Reaction incubation, 5 μL of a 1:1024 dilution of Development Reagent A is added.

[2] = biological target: standard panel of 30 kinases; test: Kinase selectivity panel (SelectScreen Z'-LYTE), number of kinases inhibited; assay type: biochemical, human; details: count out of 30 kinases
From the text: Prior art document WO 2012/010704, which is completely silent about the pharmacokinetic profile of its compounds, discloses compounds with similar substituents in the 2-position, e.g. compounds I-166, I-167 and I-175, which share the previously undefined, desirable pharmacokinetic profile with compounds (I) according to the invention.
as §1, §2, §3, §4

[3] = biological target: T2, CHEK1 (CHK1) (Homo sapiens, UniProt O14757); test: Z'-LYTE kinase selectivity assay CHEK1; assay type: biochemical
T2 construct: purchased Life Technologies P 3040
T2 sequence (O14757 1-476): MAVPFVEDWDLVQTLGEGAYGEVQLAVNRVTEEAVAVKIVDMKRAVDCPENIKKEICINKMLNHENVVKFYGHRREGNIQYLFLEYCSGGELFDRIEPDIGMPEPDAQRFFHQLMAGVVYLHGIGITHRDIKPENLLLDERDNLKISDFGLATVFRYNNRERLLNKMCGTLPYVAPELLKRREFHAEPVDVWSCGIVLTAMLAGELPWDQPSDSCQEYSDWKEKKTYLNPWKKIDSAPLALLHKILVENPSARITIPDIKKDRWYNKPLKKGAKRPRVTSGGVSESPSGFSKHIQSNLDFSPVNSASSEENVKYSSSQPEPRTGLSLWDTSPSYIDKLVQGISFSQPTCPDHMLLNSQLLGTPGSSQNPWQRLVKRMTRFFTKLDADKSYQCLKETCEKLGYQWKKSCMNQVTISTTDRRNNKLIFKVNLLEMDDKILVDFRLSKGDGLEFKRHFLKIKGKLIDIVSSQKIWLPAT
From the text: as §1, §2, §3, §4
The 2×CHEK1 (CHK1) (# P 3040)/Ser/Thr 19 (Z′-LYTE® Kinase Assay Kit—Ser/Thr 19 Peptide, # PV 4529) mixture is prepared in 50 mM HEPES pH 7.5, 0.01% BRIJ-35, 10 mM MgCl2, 1 mM EGTA. The final 10 μL Kinase Reaction consists of 2.04-35 ng CHEK1 (CHK1) and 2 μM Ser/Thr 19 in 50 mM HEPES pH 7.5, 0.01% BRIJ-35, 10 mM MgCl2. 1 mM EGTA. After the 1 hour Kinase Reaction incubation, 5 μL of a 1:256 dilution of Development Reagent A is added.

[4] = biological target: T3, CSNK2A1 (CK2 alpha 1) (Homo sapiens, UniProt P68400); test: Z'-LYTE kinase selectivity assay CSNK2A1; assay type: biochemical
T3 construct: purchased Life Technologies PV 3248
T3 sequence (P68400 whole entry): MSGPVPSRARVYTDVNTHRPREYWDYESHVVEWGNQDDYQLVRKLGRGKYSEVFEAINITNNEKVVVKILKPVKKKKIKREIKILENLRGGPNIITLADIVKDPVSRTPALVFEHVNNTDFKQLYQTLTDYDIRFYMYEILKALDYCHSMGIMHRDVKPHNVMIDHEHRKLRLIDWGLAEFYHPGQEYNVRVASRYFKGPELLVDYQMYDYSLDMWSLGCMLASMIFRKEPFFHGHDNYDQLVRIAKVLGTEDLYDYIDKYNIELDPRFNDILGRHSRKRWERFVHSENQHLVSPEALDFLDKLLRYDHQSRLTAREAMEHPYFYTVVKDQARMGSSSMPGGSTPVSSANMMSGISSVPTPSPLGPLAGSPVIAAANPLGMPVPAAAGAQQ
From the text: as §1, §2, §3, §4
The 2×CSNK2A1 (CK2 alpha 1) (# PV 3248)/Ser/Thr 11 (Z′-LYTE® Kinase Assay Kit—Ser/Thr 11 Peptide, # PV 3670) mixture is prepared in 50 mM HEPES pH 7.5, 0.01% BRIJ-35, 10 mM MgCl2, 1 mM EGTA. The final 10 μL Kinase Reaction consists of 0.68-25.7 ng CSNK2A1 (CK2 alpha 1) and 2 μM Ser/Thr 11 in 50 mM HEPES pH 7.5, 0.01% BRIJ-35, 10 mM MgCl2, 1 mM EGTA. After the 1 hour Kinase Reaction incubation, 5 μL of a 1:16 dilution of Development Reagent B is added.

T1 sequence (Q02750 whole entry): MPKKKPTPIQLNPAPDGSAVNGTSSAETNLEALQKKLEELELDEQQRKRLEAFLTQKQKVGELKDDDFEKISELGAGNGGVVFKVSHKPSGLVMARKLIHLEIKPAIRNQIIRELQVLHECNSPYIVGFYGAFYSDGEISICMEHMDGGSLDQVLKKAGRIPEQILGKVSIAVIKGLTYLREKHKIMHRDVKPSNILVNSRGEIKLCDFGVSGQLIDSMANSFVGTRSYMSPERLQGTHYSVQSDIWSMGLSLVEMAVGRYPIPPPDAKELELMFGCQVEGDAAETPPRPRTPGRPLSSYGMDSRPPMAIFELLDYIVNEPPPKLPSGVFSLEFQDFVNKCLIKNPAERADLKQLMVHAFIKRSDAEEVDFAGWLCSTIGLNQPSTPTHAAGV

Row | Compound | inhibition at 1 µM [1] | # kinases inhibited >50% @ 1 μM [2] | inhibition at 1 µM [3] | inhibition at 1 µM [4]
1 | C[C@@H]1Cc2nn(C)c(-c3ccccc3)c2-c2nc(Nc3ccn(CCN4CCOCC4)n3)ncc21 [Compound I-2] | 58% | 7/30 | 23% | 10%
2 | C[C@@H]1Cc2nn(C)c(-c3ccccc3)c2-c2nc(Nc3ccn(CCN4CCN(CC(=O)OC5CCOCC5)CC4)n3)ncc21 [Compound I-8] | 48% | 3/30 | 17% | 7%
3 | C[C@@H]1Cc2nn(C)c(-c3ccccc3)c2-c2nc(Nc3ccn(CCN4CCN(CC5CCCO5)CC4)n3)ncc21 (stereo partly shown) [Compound I-9] | 36% | 6/30 | 26% | 1%

Further lines, results first:

Row | inhibition at 1 µM [1] | # kinases inhibited >50% @ 1 μM [2] | inhibition at 1 µM [3] | inhibition at 1 µM [4] | Compound
4 | 34% | 6/30 | 11% | 4% | C[C@@H]1Cc2nn(C)c(-c3ccccc3)c2-c2nc(Nc3ccn(CCN4CCN(C)CC4)n3)ncc21 [Compound I-1]
5 | 50% | 6/30 | 31% | 3% | C[C@@H]1Cc2nn(C)c(-c3ccccc3)c2-c2nc(Nc3ccn(CCN4CCN(CC(C)(C)O)CC4)n3)ncc21 [Compound I-3]
6 | 40% | 6/30 | 38% | 8% | CC(O)CN1CCN(CCn2ccc(Nc3ncc4c(n3)-c3c(nn(C)c3-c3ccccc3)C[C@H]4C)n2)CC1 (stereo partly shown) [Compound I-7]
7 | 39% | 4/30 | 25% | 2% | COCCN1CCN(CCn2ccc(Nc3ncc4c(n3)-c3c(nn(C)c3-c3ccccc3)C[C@H]4C)n2)CC1 [Compound I-11]
